# According to patent publication US11407721B2, “CIS-morpholinone and other compounds as MDM2 inhibitors for the treatment of cancer” (AMGEN INC., priority 2013, dated 2022):
# Target: interaction between HDM2 and p53 (GST-hMDM2 (1-188) / biotinylated-p53 (1-83)) (Homo sapiens (Human), UniProt Q00987)
# Assay: HTRF2 Assay (improved HTRF assay)
# Format: binding
# Details: 0.2 nM GST-hMDM2 (1-188), 0.5 nM biotinylated-p53 (1-83), 100 mM KF; read-out: HTRF2 IC50
# interaction between HDM2 and p53 (GST-hMDM2 (1-188) / biotinylated-p53 (1-83)), sequence (Q00987 1-188): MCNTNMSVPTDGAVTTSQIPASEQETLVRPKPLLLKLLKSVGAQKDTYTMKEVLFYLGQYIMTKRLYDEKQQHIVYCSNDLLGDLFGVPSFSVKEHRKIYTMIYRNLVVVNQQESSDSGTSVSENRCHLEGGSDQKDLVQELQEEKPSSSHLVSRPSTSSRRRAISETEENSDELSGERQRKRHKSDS
row,IC50,SMILES
1,1150 nM,"CCC[C@H](CC(=O)O)N1C(=O)[C@@H](Cc2ccc(F)cc2)O[C@H](c2cccc(Cl)c2)[C@@H]1c1ccc(Cl)cc1 [(3R)-3-((2R,3S,6R)-2-(3-chlorophenyl)-3-(4-chlorophenyl)-6-(4-fluorobenzyl)-5-oxo-4-morpholinyl)hexanoic acid]"
2,1490 nM,"CCC[C@H](C(=O)O)N1C(=O)[C@H](CCN2CCOCC2)O[C@@H](c2ccc(Cl)cc2)[C@H]1c1ccc(Cl)cc1 [(2R)-2-((2S,3R,6S)-2,3-bis(4-chlorophenyl)-6-(2-(4-morpholinyl)ethyl)-5-oxo-4-morpholinyl)pentanoic acid]"
3,1730 nM,"CCC[C@H](C(=O)O)N1C(=O)[C@H](CCN2CCCCC2)O[C@@H](c2ccc(Cl)cc2)[C@H]1c1ccc(Cl)cc1 [(2R)-2-((2S,3R,6S)-2,3-bis(4-chlorophenyl)-5-oxo-6-(2-(1-piperidinyl)ethyl)-4-morpholinyl)pentanoic acid]"
4,496 nM,"CCC[C@H](C(=O)O)N1C(=O)[C@H](Cc2ccccc2OC)O[C@@H](c2ccc(Cl)cc2)[C@H]1c1ccc(Cl)cc1 [(2R)-2-((2S,3R,6S)-2,3-bis(4-chlorophenyl)-6-(2-methoxybenzyl)-5-oxo-4-morpholinyl)pentanoic acid]"
5,7180 nM,"O=C1CO[C@@H](c2ccc(Cl)cc2)[C@@H](c2ccc(Cl)cc2)N1c1ccnc(Cl)c1 [(5R,6S)-5,6-bis(4-chlorophenyl)-4-(2-chloro-4-pyridinyl)-3-morpholinone]"
6,3660 nM,"CCC[C@H](CC(=O)O)N1C(=O)[C@H](Cc2ccc(F)cc2)O[C@@H](c2cccc(Cl)c2)[C@H]1c1ccc(Cl)cc1 [(3R)-3-((2S,3R,6S)-2-(3-chlorophenyl)-3-(4-chlorophenyl)-6-(4-fluorobenzyl)-5-oxo-4-morpholinyl)hexanoic acid]"
7,3010 nM,"CCC[C@H](C(=O)O)N1C(=O)[C@H](CCCO)O[C@@H](c2ccc(Cl)cc2)[C@H]1c1ccc(Cl)cc1 [(2R)-2-((2S,3R,6S)-2,3-bis(4-chlorophenyl)-6-(3-hydroxypropyl)-5-oxo-4-morpholinyl)pentanoic acid]"
8,973 nM,"CCC[C@H](C(=O)O)N1C(=O)[C@H](CCCn2ccnc2)O[C@@H](c2ccc(Cl)cc2)[C@H]1c1ccc(Cl)cc1 [(2R)-2-((2S,3R,6S)-2,3-bis(4-chlorophenyl)-6-(3-(1H-imidazol-1-yl)propyl)-5-oxo-4-morpholinyl)pentanoic acid]"
9,63000 nM,"O=C1CO[C@@H](c2ccc(Cl)cc2)[C@@H](c2ccc(Cl)cc2)N1c1cc(Cl)nc(Cl)c1 [(5R,6S)-5,6-bis(4-chlorophenyl)-4-(2,6-dichloro-4-pyridinyl)-3-morpholinone]"
10,9300 nM,"O=C1CO[C@@H](c2ccc(Cl)cc2)[C@@H](c2ccc(Cl)cc2)N1c1cnccn1 [(5R,6S)-5,6-bis(4-chlorophenyl)-4-(2-pyrazinyl)-3-morpholinone]"
11,1110 nM,"CCC[C@H](C(=O)O)N1C(=O)[C@H](Cc2cccc(OC)c2)O[C@@H](c2ccc(Cl)cc2)[C@H]1c1ccc(Cl)cc1 [(2R)-2-((2S,3R,6S)-2,3-bis(4-chlorophenyl)-6-(3-methoxybenzyl)-5-oxo-4-morpholinyl)pentanoic acid]"
12,4140 nM,"CCC[C@H](CCC(=O)O)N1C(=O)CO[C@H](c2ccc(Cl)cc2)[C@@H]1c1ccc(Cl)cc1 [(4R)-4-((2R,3S)-2,3-bis(4-chlorophenyl)-5-oxo-4-morpholinyl)heptanoic acid]"
13,749 nM,"CCC[C@H](C(=O)NCCCC(=O)OC)N1C(=O)[C@H](Cc2ccc(S(C)(=O)=O)cc2)O[C@@H](c2ccc(Cl)cc2)[C@H]1c1ccc(Cl)cc1 [methyl 4-(((2R)-2-((2S,3R,6S)-2,3-bis(4-chlorophenyl)-6-(4-(methylsulfonyl)benzyl)-5-oxo-4-morpholinyl)pentanoyl)amino)butanoate]"
14,2790 nM,"CCC[C@H](C(=O)OCC)N1C(=O)[C@H](CCCN2CCOCC2)O[C@@H](c2ccc(Cl)cc2)[C@H]1c1ccc(Cl)cc1 [ethyl (2R)-2-((2S,3R,6S)-2,3-bis(4-chlorophenyl)-6-(3-(4-morpholinyl)propyl)-5-oxo-4-morpholinyl)pentanoate]"

row,SMILES,IC50
1,"CCC[C@H](C(=O)O)N1C(=O)[C@H](Cc2cccc(C#N)c2)O[C@@H](c2ccc(Cl)cc2)[C@H]1c1ccc(Cl)cc1 [Example 49, (R)-2-((2S,3R,6S)-2,3-Bis(4-chlorophenyl)-6-(3-cyanobenzyl)-5-oxomorpholino)pentanoic acid]",561 nM
2,"CCC[C@H](C(=O)O)N1C(=O)[C@H](Cc2ccccc2F)O[C@@H](c2ccc(Cl)cc2)[C@H]1c1ccc(Cl)cc1 [Example 47, (R)-2-((2S,3R,6S)-2,3-Bis(4-chlorophenyl)-6-(2-fluorobenzyl)-5-oxomorpholino)pentanoic acid]",400 nM
3,"CCC[C@H](C(=O)O)N1C(=O)[C@H](CCCN2CCOCC2)O[C@@H](c2ccc(Cl)cc2)[C@H]1c1ccc(Cl)cc1 [Example 57, (R)-2-((2S,3R,6S)-2,3-Bis(4-chlorophenyl)-6-(3-morpholinopropyl)-5-oxomorpholino)pentanoic acid]",391 nM
4,"CCC[C@H](C(=O)O)N1C(=O)[C@H](Cc2ccc(S(C)(=O)=O)cc2C#N)O[C@@H](c2ccc(Cl)cc2)[C@H]1c1ccc(Cl)cc1 [Example 55, (R)-2-((2S,3R,6S)-2,3-Bis(4-chlorophenyl)-6-(2-cyano-4-(methylsulfonyl)benzyl)-5-oxomorpholino)pentanoic acid]",179 nM
5,"CCC[C@H](C(=O)O)N1C(=O)[C@H](Cc2ccc(F)cc2C#N)O[C@@H](c2ccc(Cl)cc2)[C@H]1c1ccc(Cl)cc1 [Example 45, (R)-2-((2S,3R,6S)-2,3-Bis(4-chlorophenyl)-6-(2-cyano-4-fluorobenzyl)-5-oxomorpholino)pentanoic acid]",466 nM
6,"CCC[C@H](C(=O)O)N1C(=O)[C@H](Cc2ccc(F)cc2S(C)(=O)=O)O[C@@H](c2ccc(Cl)cc2)[C@H]1c1ccc(Cl)cc1 [Example 52, (R)-2-((2S,3R,6S)-2,3-Bis(4-chlorophenyl)-6-(4-fluoro-2-(methylsulfonyl)benzyl)-5-oxomorpholino)pentanoic acid]",279 nM
7,"CCC[C@H](C(=O)O)N1C(=O)[C@H](Cc2ccccc2C#N)O[C@@H](c2ccc(Cl)cc2)[C@H]1c1ccc(Cl)cc1 [Example 46, (R)-2-((2S,3R,6S)-2,3-Bis(4-chlorophenyl)-6-(2-cyanobenzyl)-5-oxomorpholino)pentanoic acid]",259 nM
8,"CCC[C@H](C(=O)O)N1C(=O)[C@H](Cc2ccccc2)O[C@@H](c2ccc(Cl)cc2)[C@H]1c1ccc(Cl)cc1 [Example 44, (R)-2-((2S,5R,6S)-2-Benzyl-5,6-bis(4-chlorophenyl)-3-oxomorpholino)pentanoic acid]",757 nM
9,"CCC[C@H](C(=O)O)N1C(=O)[C@H](Cc2ccccc2S(C)(=O)=O)O[C@@H](c2ccc(Cl)cc2)[C@H]1c1ccc(Cl)cc1 [Example 51, (R)-2-((2S,3R,6S)-2,3-Bis(4-chlorophenyl)-6-(2-(methylsulfonyl)benzyl)-5-oxomorpholino)pentanoic acid]",676 nM
10,"CCC[C@H](C(=O)O)N1C(=O)[C@H](Cc2ccc(S(C)(=O)=O)cc2)O[C@@H](c2ccc(Cl)cc2)[C@H]1c1ccc(Cl)cc1 [Example 54, (R)-2-((2S,3R,6S)-2,3-Bis(4-chlorophenyl)-6-(4-(methylsulfonyl)benzyl)-5-oxomorpholino)pentanoic acid]",196 nM
11,"CCC[C@H](C(=O)O)N1C(=O)[C@H](Cc2ccc(S(=O)(=O)C(F)(F)F)cc2)O[C@@H](c2ccc(Cl)cc2)[C@H]1c1ccc(Cl)cc1 [Example 56, (R)-2-((2S,3R,6S)-2,3-Bis(4-chlorophenyl)-5-oxo-6-(4-((trifluoromethyl)sulfonyl)benzyl)morpholino)pentanoic acid]",453 nM
12,"CCC[C@H](C(=O)O)N1C(=O)[C@H](Cc2cccc(S(C)(=O)=O)c2)O[C@@H](c2ccc(Cl)cc2)[C@H]1c1ccc(Cl)cc1 [Example 50, (R)-2-((2S,3R,6S)-2,3-Bis(4-chlorophenyl)-6-(3-(methylsulfonyl)benzyl)-5-oxomorpholino)pentanoic acid]",568 nM

# Same assay, conditions: read-out: HTRF2 IC50
row,IC50,SMILES
1,15800 nM,"CS(=O)(=O)c1ccc(C[C@@H]2O[C@@H](c3ccc(Cl)cc3)[C@@H](c3ccc(Cl)cc3)N(c3cccnc3)C2=O)cc1 (racemic) [Example 62, (2S,5R,6S)-5,6-Bis(4-chlorophenyl)-2-(4-(methylsulfonyl)benzyl)-4-(pyridin-3-yl)morpholin-3-one and (2R,5S,6R)-5,6-bis(4-chlorophenyl)-2-(4-(methylsulfonyl)benzyl)-4-(pyridin-3-yl)morpholin-3-one]"
2,20000 nM,"CS(=O)(=O)c1ccc(C[C@@H]2O[C@@H](c3ccc(Cl)cc3)[C@@H](c3ccc(Cl)cc3)N(c3cccnc3)C2=O)c(F)c1 (mixture of isomers) [Example 63, (2S,5R,6S)-5,6-Bis(4-chlorophenyl)-2-(2-fluoro-4-(methylsulfonyl)benzyl)-4-(pyridin-3-yl)morpholin-3-one and (2R,5S,6R)-5,6-bis(4-chlorophenyl)-2-(2-fluoro-4-(methylsulfonyl)benzyl)-4-(pyridin-3-yl)morpholin-3-one]"
3,1330 nM,"CCC[C@H](CCC(=O)O)N1C(=O)[C@H](Cc2ccc(F)cc2)O[C@@H](c2ccc(Cl)cc2)[C@H]1c1ccc(Cl)cc1 (mixture of isomers) [Example 31, (R)-4-((2S,3R,6S)-2,3-Bis(4-chlorophenyl)-6-(4-fluorobenzyl)-5-oxomorpholino)heptanoic acid and (S)-4-((2R,3S,6R)-2,3-bis(4-chlorophenyl)-6-(4-fluorobenzyl)-5-oxomorpholino)heptanoic acid]"
4,5000 nM,"O=C1[C@H](Cc2ccc(F)cc2)O[C@@H](c2ccc(Cl)cc2)[C@@H](c2ccc(Cl)cc2)N1c1ccnc(Cl)c1 (racemic) [Example 58, (2S,5R,6S)-5,6-Bis(4-chlorophenyl)-4-(2-chloropyridin-4-yl)-2-(4-fluorobenzyl)morpholin-3-one and (2R,5S,6R)-5,6-bis(4-chlorophenyl)-4-(2-chloropyridin-4-yl)-2-(4-fluorobenzyl)morpholin-3-one]"
